Values of other authors as cited in US6548645B1, “Immunoassay for 2-oxo-3-hydroxy LSD” (Microgenetics Corporation, priority 1999, dated 2003).

Legend:
[1] = man; calculated
[2] = doses as low as
[3] = tested on: antibodies generated by LSD immunogens (LSD analogs derivatized through N-1 or N-6 conjugated to a carrier); conditions: molar ratio; relative to LSD; antibodies of Salamone et al., Bioconjugate Chem 8:896-905 (1997)

Row | Compound | plasma half-life [1] | oral dose causing central nervous system disturbances (hallucinations, distortions in sensory perception, mood changes) [2] | cross-reactivity [3]
1 | CCN(CC)C(=O)[C@@H]1C=C2c3cccc4[nH]cc(c34)C[C@H]2N(C)C1 [LSD] | about 3 hours | ≥ 25 µg | 
2 | CCN(CC)C(=O)C1C=C2c3cccc4c3C(O)(CC2N(C)C1)C(=O)N4 (stereo not drawn) [2PATENT -oxo-3-hydroxy-LSD, 2-oxo-3-hydroxy-LSD] |  |  | 30-45%
